Source: patent US12521393B2, “Cytotoxicity targeting chimeras for CCR2-expressing cells” (GLAXOSMITHKLINE INTELLECTUAL PROPERTY DEVELOPMENT LIMITED, priority 2021, dated 2026)
Counter-ions that a name gives are not always drawn.

system: endogenous target monocytes in human PBMC; experiment: PBMC ex vivo monocyte depletion flow cytometry assay (Example 200); format: cell-based; settings: with anti-cotinine antibody (SEQ ID NO: 11/12), 18-24 hours, EC50 in molar, read-out: Ex Vivo Depletion Assay pEC50 (converted)
Outline: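 Monocyte depletion is reported as pEC50, averaged or given individually across runs, and read by flow cytometry staining CD45, CD14 and CD4 with a viability dye. Compounds, diluted four-fold over 11 points from 1 mM DMSO stocks, were combined with 30 μg/mL Fc-enhanced anti-cotinine antibody and human PBMC, then incubated 18-24 h at 37° C.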

Compound	EC50 [pM]
CC(C)N(C)[C@@H]1CC[C@H](N2CC[C@H](Nc3ncnc4ccc(C(F)(F)F)cc34)C2=O)[C@H](NC(=O)[C@H]2CC[C@H](c3ccc(C(=O)NCCOCCOCCNC(=O)[C@H]4CC(=O)N(C)[C@@H]4c4cccnc4)nc3)CC2)C1 [Example 141, 5-((1R,4r)-4-(((1R,2S,5R)-5-(Isopropyl(methyl)amino)-2-((S)-2-oxo-3-((6-(trifluoromethyl)qinazolin-4-yl)amino)pyrrolidin-1-yl)cyclohexyl)carbamoyl)cyclohexyl)-N-(2-(2-(2-((2S,3S)-1-methyl-5-oxo-2-(pyridin-3-yl)pyrrolidine-3-carboxamido)ethoxy)ethoxy)ethyl)picolinamide]	6310
CC(C)N(C)[C@@H]1CC[C@H](N2CC[C@H](Nc3ncnc4ccc(C(F)(F)F)cc34)C2=O)[C@H](NC(=O)[C@H]2CC[C@@H](N3CCN(CCCCCCCCNC(=O)[C@H]4CC(=O)N(C)[C@@H]4c4cccnc4)CC3)CC2)C1 [Example 145, (2S,3S)-N-(8-(4-((1S,4s)-4-(((1R,2S,5R)-5-(Isopropyl(methyl)amino)-2-((S)-2-oxo-3-((6-(trifluoromethyl)quinazolin-4-yl)amino)pyrrolidin-1-yl)cyclohexyl)carbamoyl)cyclohexyl)piperazin-1-yl)octyl)-1-methyl-5-oxo-2-(pyridin-3-yl)pyrrolidine-3-carboxamide]	1260
CC(C)N(C)[C@@H]1CC[C@H](N2CC[C@H](Nc3ncnc4ccc(C(F)(F)F)cc34)C2=O)[C@H](NC(=O)COCCCCCCCCCOCCCCCCCNC(=O)[C@H]2CC(=O)N(C)[C@@H]2c2cccnc2)C1 [Example 153, (2S,3S)-N-(7-((9-(2-(((1R,2S,5R)-5-(Isopropyl(methyl)amino)-2-((S)-2-oxo-3-((6-(trifluoromethyl)quinazolin-4-yl)amino)pyrrolidin-1-yl)cyclohexyl)amino)-2-oxoethoxy)nonyl)oxy)heptyl)-1-methyl-5-oxo-2-(pyridin-3-yl)pyrrolidine-3-carboxamide]	631
CC(C)N(C)[C@@H]1CC[C@H](N2CC[C@H](Nc3ncnc4ccc(C(F)(F)F)cc34)C2=O)[C@H](NC(=O)c2cnn(C3CCN(C(=O)CCCCCCCCCCNC(=O)[C@H]4CC(=O)N(C)[C@@H]4c4cccnc4)CC3)c2)C1 [Example 156, N-((1R,2S,5R)-5-(Isopropyl(methyl)amino)-2-((S)-2-oxo-3-((6-(trifluoromethyl)quinazolin-4-yl)amino)pyrrolidin-1-yl)cyclohexyl)-1-(1-(11-((2S,3S)-1-methyl-5-oxo-2-(pyridin-3-yl)pyrrolidine-3-carboxamido)undecanoyl)piperidin-4-yl)-1H-pyrazole-4-carboxamide]	794
CC(C)N(C)[C@@H]1CC[C@H](N2CC[C@H](Nc3ncnc4ccc(C(F)(F)F)cc34)C2=O)[C@H](NC(=O)C2CC=C(c3ccc(OCCCCCCNC(=O)[C@H]4CC(=O)N(C)[C@@H]4c4cccnc4)cc3)CC2)C1 (stereo partly drawn) [Example 158, (2S,3S)-N-(6-((4′-(((1R,2S,5R)-5-(Isopropyl(methyl)amino)-2-((S)-2-oxo-3-((6-(trifluoromethyl)quinazolin-4-yl)amino)pyrrolidin-1-yl)cyclohexyl)carbamoyl)-2′,3′,4′,5′-tetrahydro-[1,1′-biphenyl]-4-yl)oxy)hexyl)-1-methyl-5-oxo-2-(pyridin-3-yl)pyrrolidine-3-carboxamide]	501
CC(C)N(C)[C@@H]1CC[C@H](N2CC[C@H](Nc3ncnc4ccc(C(F)(F)F)cc34)C2=O)[C@H](NC(=O)c2ccnc(CCCOCCOCCOCCOCCNC(=O)[C@H]3CC(=O)N(C)[C@@H]3c3cccnc3)c2)C1 [Example 160, N-((1R,2S,5R)-5-(Isopropyl(methyl)amino)-2-((S)-2-oxo-3-((6-(trifluoromethyl)quinazolin-4-yl)amino)pyrrolidin-1-yl)cyclohexyl)-2-(1-((2S,3S)-1-methyl-5-oxo-2-(pyridin-3-yl)pyrrolidin-3-yl)-1-oxo-5,8,11,14-tetraoxa-2-azaheptadecan-17-yl)isonicotinamide, 3Formic acid salt]	31600
CC(C)N(C)[C@@H]1CC[C@H](N2CC[C@H](Nc3ncnc4ccc(C(F)(F)F)cc34)C2=O)[C@H](NC(=O)CCCCCCCCC(=O)NCCCCCCCCCCNC(=O)[C@H]2CC(=O)N(C)[C@@H]2c2cccnc2)C1 [Example 165, N^1-((1R,2S,5R)-5-(isopropyl(methyl)amino)-2-((S)-2-oxo-3-((6-(trifluoromethyl)quinazolin-4-yl)amino)pyrrolidin-1-yl)cyclohexyl)-N^10-(10-((2S,3S)-1-methyl-5-oxo-2-(pyridin-3-yl)pyrrolidine-3-carboxamido)decyl)decanediamide]	631
CC(C)N(C)[C@@H]1CC[C@H](N2CC[C@H](Nc3ncnc4ccc(C(F)(F)F)cc34)C2=O)[C@H](NC(=O)CCOCCC(=O)N2CCC3(CCC(C(=O)NCCNC(=O)[C@H]4CC(=O)N(C)[C@@H]4c4cccnc4)CC3)CC2)C1 [Example 167, 3-(3-(3-(((1R,2S,5R)-5-(Isopropyl(methyl)amino)-2-((S)-2-oxo-3-((6-(trifluoromethyl)quinazolin-4-yl)amino)pyrrolidin-1-yl)cyclohexyl)amino)-3-oxopropoxy)propanoyl)-N-(2-((2S,3S)-1-methyl-5-oxo-2-(pyridin-3-yl)pyrrolidine-3-carboxamido)ethyl)-3-azaspiro[5.5]undecane-9-carboxamide]	1580
CC(C)N(C)[C@@H]1CC[C@H](N2CC[C@H](Nc3ncnc4ccc(C(F)(F)F)cc34)C2=O)[C@H](NC(=O)[C@H]2CC[C@@H](NC(=O)CCOCCOCCNC(=O)CCCNC(=O)[C@H]3CC(=O)N(C)[C@@H]3c3cccnc3)CC2)C1 [Example 176, (2S,3S)-N-(4-((2-(2-(3-(((1S,4s)-4-(((1R,2S,5R)-5-(Isopropyl(methyl)amino)-2-((S)-2-oxo-3-((6-(trifluoromethyl)quinazolin-4-yl)amino)pyrrolidin-1-yl)cyclohexyl)carbamoyl)cyclohexyl)amino)-3-oxopropoxy)ethoxy)ethyl)amino)-4-oxobutyl)-1-methyl-5-oxo-2-(pyridin-3-yl)pyrrolidine-3-carboxamide]	316
CC(C)N(CCOCCOCCC(=O)N[C@H]1CC[C@@H](C(=O)N[C@@H]2C[C@H](N(C)C(C)C)CC[C@@H]2N2CC[C@H](Nc3ncnc4ccc(C(F)(F)F)cc34)C2=O)CC1)C(=O)CCCNC(=O)[C@H]1CC(=O)N(C)[C@@H]1c1cccnc1 [Example 177, (2S,3S)-N-(4-(Isopropyl(2-(2-(3-(((1S,4s)-4-(((1R,2S,5R)-5-(isopropyl(methyl)amino)-2-((S)-2-oxo-3-((6-(trifluoromethyl)quinazolin-4-yl)amino)pyrrolidin-1-yl)cyclohexyl)carbamoyl)cyclohexyl)amino)-3-oxopropoxy)ethoxy)ethyl)amino)-4-oxobutyl)-1-methyl-5-oxo-2-(pyridin-3-yl)pyrrolidine-3-carboxamide]	251
CC(C)N(C)[C@@H]1CC[C@H](N2CC[C@H](Nc3ncnc4ccc(C(F)(F)F)cc34)C2=O)[C@H](NC(=O)CCCN2CCC3(CCC(C(=O)NCCNC(=O)[C@H]4CC(=O)N(C)[C@@H]4c4cccnc4)CC3)CC2)C1 [Example 183, 3-(4-(((1R,2S,5R)-5-(Isopropyl(methyl)amino)-2-((S)-2-oxo-3-((6-(trifluoromethyl)quinazolin-4-yl)amino)pyrrolidin-1-yl)cyclohexyl)amino)-4-oxobutyl)-N-(2-((2S,3S)-1-methyl-5-oxo-2-(pyridin-3-yl)pyrrolidine-3-carboxamido)ethyl)-3-azaspiro[5.5]undecane-9-carboxamide, 3 Formic acid salt]	251
CC(C)N(C)[C@@H]1CC[C@H](N2CC[C@H](Nc3ncnc4ccc(C(F)(F)F)cc34)C2=O)[C@H](NC(=O)C2CCN(C3CCN(C4CCN(CCCCNC(=O)[C@H]5CC(=O)N(C)[C@@H]5c5cccnc5)CC4)CC3)CC2)C1 [Example 185, N-((1R,2S,5R)-5-(isopropyl(methyl)amino)-2-((S)-2-oxo-3-((6-(trifluoromethyl)quinazolin-4-yl)amino)pyrrolidin-1-yl)cyclohexyl)-1″-(4-((2S,3S)-1-methyl-5-oxo-2-(pyridin-3-yl)pyrrolidine-3-carboxamido)butyl)-[1,4′:1′,4″-terpiperidine]-4-carboxamide]	63.1
CC(C)N(C)[C@@H]1CC[C@H](N2CC[C@H](Nc3ncnc4ccc(C(F)(F)F)cc34)C2=O)[C@H](NC(=O)[C@H]2CC[C@H](C3CCN(CCOCCOCCNC(=O)[C@H]4CC(=O)N(C)[C@@H]4c4cccnc4)CC3)CC2)C1 [Example 189, (2S,3S)-N-(2-(2-(2-(4-((1R,4r)-4-(((1R,2S,5R)-5-(Isopropyl(methyl)amino)-2-((S)-2-oxo-3-((6-(trifluoromethyl)quinazolin-4-yl)amino)pyrrolidin-1-yl)cyclohexyl)carbamoyl)cyclohexyl)piperidin-1-yl)ethoxy)ethoxy)ethyl)-1-methyl-5-oxo-2-(pyridin-3-yl)pyrrolidine-3-carboxamide]	7940
CC(C)N(C)[C@@H]1CC[C@H](N2CC[C@H](Nc3ncnc4ccc(C(F)(F)F)cc34)C2=O)[C@H](NC(=O)[C@H]2CC[C@H](N3CCN(CCOCCOCCNC(=O)[C@H]4CC(=O)N(C)[C@@H]4c4cccnc4)CC3)CC2)C1 [Example 190, (2S,3S)-N-(2-(2-(2-(4-((1R,4r)-4-(((1R,2S,5R)-5-(isopropyl(methyl)amino)-2-((S)-2-oxo-3-((6-(trifluoromethyl)quinazolin-4-yl)amino)pyrrolidin-1-yl)cyclohexyl)carbamoyl)cyclohexyl)piperazin-1-yl)ethoxy)ethoxy)ethyl)-1-methyl-5-oxo-2-(pyridin-3-yl)pyrrolidine-3-carboxamide]	3160
